Assay results taken from patent publication US12281122B1, “PI3K inhibitors” (Cogent Biosciences, Inc., priority 2023, dated 2025).

Columns and labels:
[1] = test system: SKBR3 (PI3Kα-Wild Type) cell line; test: HTRF phospho-AKT(S473) cell assay in SKBR3 cells; type: cell-based, human; conditions: Homo sapiens, SK-BR-3, 2 hours compound incubation, PDGF-BB stimulated
Procedure, shortened: (§1)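 T47D (PI3Kα-H1047R; RPMI, 10% FBS, insulin) and SKBR3 (wild-type PI3Kα; McCoy's 5A, 10% FBS) cells treated 2 h at 37 °C with 12-point 1:3 dilutions, top 5 μM and 10 μM respectively, ≤0.5% DMSO. SKBR3 stimulated with 70 ng/ml PDGF-BB for the last 15 min; lysate pAKT(S473) by HTRF, IC50 from curves.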

[2] = test system: T47D (PI3Kα-H1047R) cell line; test: HTRF phospho-AKT(S473) cell assay in T47D cells; type: cell-based, human; conditions: Homo sapiens, 2 hours compound incubation
Procedure, shortened: as §1

[3] = HTRF phospho-AKT(S473), SKBR3 (PI3Kα-Wild Type) cells
[4] = HTRF phospho-AKT(S473), T47D (PI3Kα-H1047R) cells
[5] = SKBR3 (PI3Kα-Wild Type) cells, HTRF phospho-AKT(S473)
[6] = T47D (PI3Kα-H1047R) cells, HTRF phospho-AKT(S473)

Row | Compound | IC50 [1, 3] | IC50 [2, 4] | IC50 [1, 5] | IC50 [2, 6] | further results
1 | Cc1cc([C@@H](C)Nc2ccc(Cl)nc2C(=O)NS(C)(=O)=O)c2nc(N3C[C@@H]4[C@H](C3)[C@H]4c3cc(C4CC4)[nH]n3)n(C)c(=O)c2c1 [Compound 524, 6-chloro-3-(((R)-1-(2-((1R,5S,6R)-6-(5-cyclopropyl-1H-pyrazol-3-yl)-3-azabicyclo[3.1.0]hexan-3-yl)-3,6-dimethyl-4-oxo-3,4-dihydroquinazolin-8-yl)ethyl)amino)-N-(methylsulfonyl) picolinamide] | 1000 to 5000 nM | < 250 nM | – | – | –
2 | CCn1c(N2C[C@@H]3[C@H](C2)[C@H]3c2ccn(C)n2)nc2c([C@@H](C)Nc3ccc(Cl)nc3C(=O)NS(C)(=O)=O)cc(C)cc2c1=O [Compound 432, 6-chloro-3-(((R)-1-(3-ethyl-6-methyl-2-((1R,5S,6R)-6-(1-methyl-1H-pyrazol-3-yl)-3-azabicyclo[3.1.0]hexan-3-yl)-4-oxo-3,4-dihydroquinazolin-8-yl)ethyl)amino)-N-(methylsulfonyl) picolinamide] | – | – | 1000 to 5000 nM | < 250 nM | –
3 | Cc1ccc(C2CCN(c3nc4c([C@@H](C)Nc5ccc(Cl)nc5C(=O)NS(C)(=O)=O)cc(F)cc4c(=O)n3C)CC2)cn1 [Compound 365, (R)-6-chloro-3-((1-(6-fluoro-3-methyl-2-(4-(6-methylpyridin-3-yl)piperidin-1-yl)-4-oxo-3,4-dihydroquinazolin-8-yl)ethyl)amino)-N-(methylsulfonyl) picolinamide] | – | – | 1000 to 5000 nM | < 250 nM | –
4 | Cc1cc([C@@H](C)Nc2ccc(Cl)nc2C(=O)NS(=O)(=O)C2COC2)c2nc(N3CCOCC3)n(C)c(=O)c2c1 [Compound 294, (R)-6-chloro-3-((1-(3,6-dimethyl-2-morpholino-4-oxo-3,4-dihydroquinazolin-8-yl)ethyl)amino)-N-(oxetan-3-ylsulfonyl)picolinamide] | – | – | 1000 to 5000 nM | < 250 nM | –
5 | Cc1cc([C@@H](C)Nc2ccc(Cl)nc2C(=O)NS(C)(=O)=O)c2nc(N3CCC(C)(c4nn(C)cc4F)CC3)n(C)c(=O)c2c1 [Compound 406, (R)-6-chloro-3-((1-(2-(4-(4-fluoro-1-methyl-1H-pyrazol-3-yl)-4-methylpiperidin-1-yl)-3,6-dimethyl-4-oxo-3,4-dihydroquinazolin-8-yl)ethyl)amino)-N-(methylsulfonyl) picolinamide] | – | – | ≥ 5000 nM | 250 to 500 nM | –
6 | Cc1cc([C@@H](C)Nc2ccc(Cl)nc2C(=O)NS(C)(=O)=O)c2nc(N3C[C@@H]4[C@H](C3)[C@H]4c3cc(C)n(C4CC4)n3)n(C)c(=O)c2c1 [Compound 567, 6-chloro-3-(((R)-1-(2-((1R,5S,6R)-6-(1-cyclopropyl-5-methyl-1H-pyrazol-3-yl)-3-azabicyclo[3.1.0]hexan-3-yl)-3,6-dimethyl-4-oxo-3,4-dihydroquinazolin-8-yl)ethyl)amino)-N-(methylsulfonyl) picolinamide] | ≥ 5000 nM | 250 to 500 nM | – | – | –
7 | Cc1cc([C@@H](C)Nc2ccc(Cl)nc2C(=O)NS(C)(=O)=O)c2nc(N3C[C@H]4C[C@@H]3CN4c3cnc(C)cn3)n(C)c(=O)c2c1 [Compound 577, 6-chloro-3-(((R)-1-(3,6-dimethyl-2-((1R,4R)-5-(5-methylpyrazin-2-yl)-2,5-diazabicyclo[2.2.1]heptan-2-yl)-4-oxo-3,4-dihydroquinazolin-8-yl)ethyl)amino)-N-(methylsulfonyl) picolinamide] | ≥ 5000 nM | 250 to 500 nM | – | – | –
8 | Cc1cc([C@@H](C)Nc2ccc(Cl)nc2C(=O)NS(C)(=O)=O)c2nc(-c3cnc(N(C)C)nc3)n(C)c(=O)c2c1 [Compound 852, (R)-6-chloro-3-((1-(2-(2-(dimethylamino)pyrimidin-5-yl)-3,6-dimethyl-4-oxo-3,4-dihydroquinazolin-8-yl)ethyl)amino)-N-(methylsulfonyl) picolinamide] | – | – | – | – | IC50 ([1]; SKBR3 (PI3Kα-Wild Type) cell line, phospho-AKT(S473) HTRF): ≥ 5000 nM; IC50 ([2]; T47D (PI3Kα-H1047R) cell line, phospho-AKT(S473) HTRF): 250 to 500 nM
9 | Cc1cc([C@@H](C)Nc2ccc(Cl)nc2C(=O)NS(C)(=O)=O)c2nc(N3CC[C@@H](Oc4cc[nH]n4)C3)n(C)c(=O)c2c1 [Compound 363, 3-(((R)-1-(2-((R)-3-((1H-pyrazol-3-yl)oxy)pyrrolidin-1-yl)-3,6-dimethyl-4-oxo-3,4-dihydroquinazolin-8-yl)ethyl)amino)-6-chloro-N-(methylsulfonyl) picolinamide] | – | – | 1000 to 5000 nM | < 250 nM | –
10 | Cc1cc([C@@H](C)Nc2ccc(Cl)nc2C(=O)NS(C)(=O)=O)c2nc(N3C[C@H]4C[C@@H](c5ccn(C)n5)[C@@H]3C4)n(C)c(=O)c2c1 [Compound 315, 6-chloro-3-(((R)-1-(3,6-dimethyl-2-((1S,4S,6R)-6-(1-methyl-1H-pyrazol-3-yl)-2-azabicyclo[2.2.1]heptan-2-yl)-4-oxo-3,4-dihydroquinazolin-8-yl)ethyl)amino)-N-(methylsulfonyl) picolinamide] | – | – | ≥ 5000 nM | < 250 nM | –
11 | Cc1cc([C@@H](C)Nc2ccc(Cl)nc2C(=O)NS(C)(=O)=O)c2nc(N3C[C@@H]4[C@H](C3)[C@H]4c3cncc(C)n3)n(C)c(=O)c2c1 [Compound 418, 6-chloro-3-(((R)-1-(3,6-dimethyl-2-((1R,5S,6R)-6-(6-methylpyrazin-2-yl)-3-azabicyclo[3.1.0]hexan-3-yl)-4-oxo-3,4-dihydroquinazolin-8-yl)ethyl)amino)-N-(methylsulfonyl) picolinamide] | – | – | 1000 to 5000 nM | < 250 nM | –
12 | Cc1cc([C@@H](C)Nc2ccc(Cl)nc2C(=O)NS(C)(=O)=O)c2nc(N3CCC[C@@H](Oc4ccc(C)nc4)C3)n(C)c(=O)c2c1 [Compound 368, 6-chloro-3-(((R)-1-(3,6-dimethyl-2-((R)-3-((6-methylpyridin-3-yl)oxy)piperidin-1-yl)-4-oxo-3,4-dihydroquinazolin-8-yl)ethyl)amino)-N-(methylsulfonyl) picolinamide] | – | – | ≥ 5000 nM | 250 to 500 nM | –
13 | Cc1cc([C@@H](C)Nc2ccc(Cl)nc2C(=O)NS(C)(=O)=O)c2nc(-c3ccc4nn(C5CC5)cc4c3)n(C)c(=O)c2c1 [Compound 819, (R)-6-chloro-3-((1-(2-(2-cyclopropyl-2H-indazol-5-yl)-3,6-dimethyl-4-oxo-3,4-dihydroquinazolin-8-yl)ethyl)amino)-N-(methylsulfonyl) picolinamide] | 1000 to 5000 nM | 250 to 500 nM | – | – | –
14 | Cc1cc([C@@H](C)Nc2ccc(Cl)nc2C(=O)NS(C)(=O)=O)c2nc(N3CCC(c4cc(N)n(C)n4)CC3)n(C)c(=O)c2c1 [Compound 338, (R)-3-((1-(2-(4-(5-amino-1-methyl-1H-pyrazol-3-yl)piperidin-1-yl)-3,6-dimethyl-4-oxo-3,4-dihydroquinazolin-8-yl)ethyl)amino)-6-chloro-N-(methylsulfonyl) picolinamide] | – | – | 1000 to 5000 nM | < 250 nM | –
15 | [2H]C([2H])([2H])n1nc([C@H]2[C@@H]3CN(c4nc5c([C@@H](C)Nc6ccc(Cl)nc6C(=O)NS(C)(=O)=O)cc(C)cc5c(=O)n4C)C[C@@H]32)c(Cl)c1C [Compound 661, 6-chloro-3-(((R)-1-(2-((1R,5S,6R)-6-(4-chloro-5-methyl-1-(methyl-d3)-1H-pyrazol-3-yl)-3-azabicyclo[3.1.0]hexan-3-yl)-3,6-dimethyl-4-oxo-3,4-dihydroquinazolin-8-yl)ethyl)amino)-N-(methylsulfonyl) picolinamide] | ≥ 5000 nM | 250 to 500 nM | – | – | –
